Experimental data reported in PubChem BioAssay AID1996.
Converted amounts (≈) assume the structure as drawn.

conditions: buffer; pH 7.4; 200.0 µM

Structure (SMILES)	solubility kinetic [µg/mL]
Cc1ccc2nc(SC(C)C(=O)N3CC(C)OC(C)C3)[nH]c2c1 (stereo not given)	49.4 (≈ 148 µM)
O=C(O)Cc1ccc(S(=O)(=O)Nc2ccccc2C(=O)O)cc1	43.4 (≈ 129 µM)
O=C(CCCn1cc([N+](=O)[O-])cn1)NCc1ccccc1	> 43.2
Cc1ccc(CNC(=O)Cc2noc3ccccc23)cc1	2.3 (≈ 8.2 µM)
O=C(CSc1ncccn1)Nc1cccc(S(=O)(=O)N2CCOCC2)c1	> 59.2
CCCCn1c(=O)c(C(=O)Nc2ccccc2C)c(O)c2ccccc21	< 0.4
CCOP(=O)(OCC)C(Nc1ccccc1)c1cccnc1 (stereo not given)	> 48
O=C(Nc1cccnc1)c1cc(-c2ccccc2O)on1	1.3 (≈ 4.62 µM)
N#Cc1ccccc1-c1ccccc1C(=O)N1CCCCC1	> 43.6
CC(C)(C)C(=O)Nc1ccc(NC(=O)c2ccco2)nc1	> 43.1
Cc1cc(C)c(C#N)c(SCc2ccccc2F)n1	< 0.3
O=C(NC1CCCCC1)c1cc(S(=O)(=O)N2CCN(c3ccccc3)CC2)ccc1Cl	1.5 (≈ 3.25 µM)
CCOC(=O)c1ccc(NC(=S)Nc2cccc(N)n2)cc1	2.3 (≈ 7.27 µM)
CCOC(=O)Cc1cc(=O)[nH]c(/N=C(\N)Nc2ccc(OC)cc2)n1	6.2 (≈ 18 µM)
CC1CN(CCn2cnc3c(N)ncnc32)CC(C)O1 (stereo not given)	36.9 (≈ 134 µM)
CCc1ccc(C(=O)N2CCCN(C)CC2)s1	> 37.9
Cl.OCCNCCNCc1ccc(-c2ccccc2)cc1	> 51.5
O=C(COC(=O)C1CC1)NC(=O)NCc1ccccc1	> 41.4
CCC(=O)OC1(Cc2ccc(CC)cc2)CC(C)N(C)CC1C.Cl (stereo not given)	46.9
C=CCOc1ccc(/C=C/C(=O)OCC(=O)N2CCN(C(C)=O)CC2)cc1	> 55.9
O=S(=O)(c1ccc(F)cc1)N1CCCCC1c1cccnc1 (stereo not given)	> 48.1
Cc1cccc(-n2c(=S)[nH]c3ccccc3c2=O)n1	> 40.4
Brc1ccc2[nH]c3c(c2c1)CCC3	3.1 (≈ 13.1 µM)
O=C1CSC(=S)N1c1ccc(F)c(Cl)c1	1.3 (≈ 4.97 µM)

Structure (SMILES)	solubility kinetic [µg/mL]
CCOc1ccccc1NC(=O)C(NC(=O)C1CCC(C)CC1)C(C)C (stereo not given)	4.9 (≈ 13.6 µM)
CCOC(=O)c1c(NC(=O)NC(C)(C)C)sc2c1CCN(C)C2	14.9 (≈ 43.9 µM)
Cc1csc(NC(=O)CSc2[nH]c(=O)ncc2C)n1	> 44.5
COn1c(C)c(C)c2c3nonc3ccc21	8.9 (≈ 41 µM)
O=C1NC(=Nc2ccccc2)S/C1=C\c1cccs1	1 (≈ 3.49 µM)
Cc1cc(C)nc(SCC(=O)Nc2nccs2)n1	> 42.1
Cc1cccc(NP(=O)(Oc2ccccc2)Oc2ccccc2)c1C	< 0.8
CC(C)C(=O)Nc1ccc2c(c1)nc(CCN1CCCCC1)n2C	> 49.3
Nc1ncccc1OCc1ccc(Cl)c(Cl)c1	29.7 (≈ 110 µM)
O=C(Nc1cccc(F)c1)N1CCN(C(=O)c2ccco2)CC1	> 47.6
COc1cccc(C(=O)NCC(=O)OC(C)C(=O)NC23CC4CC(CC(C4)C2)C3)c1 (stereo not given)	> 62.2
NC(=O)[C@@H]1CCCN1Cc1nc(-c2ccccc2)no1	31.9 (≈ 117 µM)
CN1CCC(N(C)C(=O)c2cccc(S(=O)(=O)N3CCc4ccccc43)c2)CC1	> 62
CC(NC(=O)c1ccccc1N)c1ccccc1 (stereo not given)	> 36
Cc1cc(C)cc(C(=O)N2CCN(c3ccccn3)CC2)c1	42.7 (≈ 145 µM)
CC12CS(=O)(=O)CC1SC(=S)N2Cc1ccccc1 (stereo not given)	44.2 (≈ 141 µM)
FC(F)(F)c1ccccc1CCN1CCNCC1	32.9 (≈ 127 µM)
CC(OC(=O)CC1CCCCC1)C(=O)Nc1ccc(F)cc1 (stereo not given)	1.2 (≈ 3.9 µM)
COCCNC(=O)Cn1cc(C(=O)c2ccco2)c2ccccc21	> 49
O=C(NCc1ccncc1)c1cc2ccccc2nc1Cl	43.4 (≈ 146 µM)
C=CCn1cnc2c(sc3nc(C)cc(C)c32)c1=O	6.9 (≈ 25.4 µM)
Cc1cc(Br)ccc1NC(=S)NCCc1ccccc1	8.6 (≈ 24.6 µM)
CN(CCN1CCOCC1)Cc1nc(-c2cccs2)no1	44.5 (≈ 144 µM)
Cc1ccc(C)c(N(CC(=O)NC2CCCC2)S(=O)(=O)c2ccccc2)c1	< 0.4

Structure (SMILES)	solubility kinetic [µg/mL]
CC(C)(C)S(=O)(=O)c1cnc(N2CCOCC2)nc1N	32.8 (≈ 109 µM)
Cc1ccc(/C=C(\C#N)C(=O)Nc2cccc(C)n2)cc1	< 0.2
CCOc1ccccc1C(=O)NCC(=O)N(C)Cc1cccnc1	44.8 (≈ 137 µM)
Cc1nc(NC(=O)CCc2ccccc2)sc1C	18.7 (≈ 71.8 µM)
Cl.NCC1CC2c3ccccc3C1c1ccccc12 (stereo not given)	> 40.8
O=C(Cc1ccc(S(=O)(=O)N2CCCC2)s1)Nc1cccc([N+](=O)[O-])c1	20.7 (≈ 52.3 µM)
CN1C(=O)/C(=C/c2cn(CC(=O)N3CCCCC3)c3ccccc23)NC1=S	2.7 (≈ 7.06 µM)
Cc1cc(Nc2ccc(C)c(Cl)c2)nc(N2CCOCC2)n1	7.6 (≈ 23.8 µM)
CCOC(=O)/C(C#N)=C/Nc1cc(C(C)(C)C)sc1C(C)=O	< 0.3
N#CC(CC(=O)c1ccc(F)cc1)c1ccc2c(c1)OCO2 (stereo not given)	1.2 (≈ 4.04 µM)
O=C(COC(=O)c1cc[n+]([O-])cc1)Nc1cccc(F)c1	> 43.5
O=[N+]([O-])C1=CC=C2C(=NC3(CCCCC3)N2O)C1=NCCO	> 45.9
CN1C(=O)C(O)(CC(=O)/C=C/c2ccco2)c2ccccc21 (stereo not given)	> 44.6
Cc1nn(C)c(NC(=O)c2ccccc2Cl)c1Br	> 49.3
COc1ccc(C(=O)NC(C)C2CC3CCC2C3)c(OC)c1 (stereo not given)	> 45.5
CN1CCN(C2CCN(c3cccc(Cl)c3)CC2)CC1CCO (stereo not given)	36.8 (≈ 109 µM)
O=C(O)CNC(=O)c1ccc(N2CCOCC2)cc1[N+](=O)[O-]	> 46.4
CC(NC(=O)C1CCN(C(=O)c2ccc(F)cc2)CC1)c1ccc(S(N)(=O)=O)cc1 (stereo not given)	> 65
c1cncc(-c2nc(-c3ccc4c(c3)OCCO4)cs2)c1	4.6 (≈ 15.5 µM)
O=c1[nH]c(=O)n(-c2cccc(F)c2)c(O)c1/C=C1\C=Nc2ccccc21	2.9 (≈ 8.3 µM)
CC(=O)NO	< 0.2
CCn1c(/N=C/c2ccc(OC)cc2O)nc2ccccc21	15.6 (≈ 52.8 µM)
CC(NC(=O)c1ccc(S(=O)(=O)Nc2ccccc2Cl)cc1)c1ccncc1 (stereo not given)	> 62.4
CN(Cc1ccccc1)S(=O)(=O)c1ccc(NC(=O)C2CCCCC2C(=O)O)cc1 (stereo not given)	> 64.6

Structure (SMILES)	solubility kinetic [µg/mL]
O=C(Cc1cccc2ccccc12)Nc1cc(Cl)ccc1C(=O)O	> 51
COc1ccc(CC(=O)NCCc2ccc(OC)c(OC)c2)cc1	> 49.4
O=C(COC(=O)c1c(F)cccc1F)c1ccc[nH]1	39.3 (≈ 148 µM)
S=C(Nc1cccc(Cl)c1)Nc1ccc2c(c1)OCCO2	40.4 (≈ 126 µM)
CCc1ccc2oc(-c3ccc(NC(C)=O)cc3)nc2c1	0.8 (≈ 2.85 µM)
CC(C)[C@H](NS(=O)(=O)c1ccccc1)C(=O)OCC(=O)NC1CCCCC1	> 59.5
COc1cccc(CNC(=O)CC2Sc3ccccc3NC2=O)c1 (stereo not given)	1.5 (≈ 4.38 µM)
O=C(O)c1ccc2c(=O)[nH]c(CCl)nc2c1	> 35.8
N#Cc1cccc(Nc2c3c(nc4ccccc24)CCC3)c1	8.4 (≈ 29.4 µM)
c1ccc2c(c1)CC(CN1CCNCC1)O2 (stereo not given)	> 32.7
CC1C(=O)NC(=O)C1c1ccccc1 (stereo not given)	> 28.4
Cc1cc(C)cc(OCC(=O)Nc2nc(-c3ccccn3)cs2)c1	1.2 (≈ 3.54 µM)
CCOC(=O)c1ccc(NS(=O)(=O)c2cn(C)cn2)cc1	> 46.4
COc1cccc(/C=C/C(=O)Nc2ccc3[nH]c(=O)[nH]c3c2)c1	6.7 (≈ 21.7 µM)
Cc1ccc(CNC(=O)CCc2c(C)[nH]c(=O)c(C#N)c2C)cc1	> 48.5
Cc1cccc(C)c1OCCN1CCCC1	28.7 (≈ 131 µM)
CCN1CCN(c2nnc(-c3ccccc3)c3ccccc23)CC1	> 47.8
Cc1ccccc1OCCCCCCN1CCNCC1.O=C(O)C(=O)O	49.5
Cc1ccc([N+](=O)[O-])cc1NC(=S)NCCc1ccccc1	39.4 (≈ 125 µM)
CCCC(C)NC(=O)CN1C(=O)NC2(CCc3ccccc32)C1=O (stereo not given)	> 49.4
CN1CCC(OC(=O)c2ccco2)CC1.Cl	> 36.9
COc1ccccc1N1CCN(C(=O)c2cc(C)oc2C)CC1	> 47.2
O=C(Nc1nccs1)C1CC(=O)N(CCc2ccc(F)cc2)C1 (stereo not given)	> 50
CCC1CCCCN1Cc1nc(Cc2ccccc2Cl)no1 (stereo not given)	16.3 (≈ 51 µM)

Structure (SMILES)	solubility kinetic [µg/mL]
COc1ccc(C)cc1S(=O)(=O)n1cnc(C)c1	> 39.9
CCCCC1C2C(=O)N(c3ccc(C)cc3)C(=O)C2ON1c1ccccc1 (stereo not given)	46.2 (≈ 127 µM)
O=C(c1cc(F)ccc1F)C1CCCN(Cc2cccc(Cl)c2)C1 (stereo not given)	2.1 (≈ 6 µM)
CC1Oc2ccccc2N(Cc2ccc(F)cc2)C1=O (stereo not given)	23.4 (≈ 86.3 µM)
C=CCn1c(=O)c(C(=O)NCc2ccc3c(c2)OCO3)c(O)c2ccccc21	1.3 (≈ 3.44 µM)
CCN(C(=O)COC(=O)c1ccccc1OCc1ccc(Cl)cc1)C1CCS(=O)(=O)C1 (stereo not given)	25 (≈ 53.7 µM)
COc1ccccc1CC(=O)O/N=C(\N)c1ccccn1	> 42.8
Cc1cc(C)c(C#N)c(SCC(=O)Nc2cc(C)on2)n1	2.1 (≈ 6.95 µM)
Cc1ccc(S(=O)(=O)N2CCOCC2)cc1C(=O)NCCc1ccc(Cl)cc1	26 (≈ 61.5 µM)
CCOc1ccc(NC(=O)COc2ccc3c(c2)OCO3)cc1	5.7 (≈ 18.1 µM)
Cc1cc(Cl)ccc1OCC(=O)NC(=S)Nc1ccc(Cl)cn1	< 0.3
OCCCNc1nc(-c2ccc(Cl)cc2)nc2ccccc12	1.8 (≈ 5.74 µM)
CC1CN(C(=O)COC(=O)c2c(Cl)cccc2Cl)CC(C)O1 (stereo not given)	49.5 (≈ 143 µM)
CCOC(=O)CN1C(=O)C(=O)N(Cc2c(C)cc(C)cc2C)C1=O	14 (≈ 42.1 µM)
CC(=O)c1ccc(N2CCN(Cc3nc4ccccc4[nH]3)CC2)cc1	29.8 (≈ 89.1 µM)
COc1ccccc1CCC(=O)OCC(=O)NCc1ccc(OC)c(OC)c1	> 58.1
N/C(=N\O)c1ccccc1N1CCCCC1	29.9 (≈ 136 µM)
COc1ccc(Nc2nc(C)cc(C)c2C#N)c(OC)c1	< 0.2
O=C(NC1=NCCS1)C1CC(=O)N(c2ccc(Cl)cc2)C1 (stereo not given)	> 48.6
Cc1ccc(C(=O)NCCN2CCOCC2)c(Cl)c1	> 42.4
CCN1CCc2nc(N)sc2C1	25.8 (≈ 141 µM)
Cc1cccc(N2CCN(Cc3nc(CC4CC4)no3)CC2)n1	41.1 (≈ 131 µM)
Cc1ccccc1NC(=O)NCCCN1CCN(C)CC1	> 43.6
Cc1ccccc1OC(=O)c1cccnc1	28.4 (≈ 133 µM)
